# Laboratory results published in ChEMBL document CHEMBL1201862, “PubChem BioAssay data set” (2004).
#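 Five compound concentrations were applied to cells in 96-well plates for 48 hours; endpoints were derived by simple linear interpolation of the resulting dose-response curve. GI50 marks 50% less growth.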 Calls of active or inactive are those of the source. Rule as the data show it: active = GI50 up to about 1.1 µM and inactive = higher.
# What was measured:
# Test in all cases: NCI-60 cell line screen, 48 h
# OVCAR-4 = test system: OVCAR-4
# HOP-62 = test system: HOP-62
# NCI-H522 = test system: NCI-H522
# MOLT-4 = test system: MOLT-4
# M19-MEL = test system: M19-MEL
# SF-295 = test system: SF-295
# HOP-92 = test system: HOP-92
# OVCAR-8 = test system: OVCAR-8
# EKVX = test system: EKVX
# UO-31 = test system: UO-31
# TK-10 = test system: TK-10
# NCI-H226 = test system: NCI-H226
# OVCAR-3 = test system: OVCAR-3
# SNB-75 = test system: SNB-75
# SNB-19 = test system: SNB-19
# A498 = test system: A498
# SR = test system: SR
# PC-3 = test system: PC-3
# Hs-578T = test system: Hs-578T
# NCI/ADR-RES = test system: NCI/ADR-RES
Structure (SMILES),GI50 (OVCAR-4),GI50 (HOP-62),GI50 (NCI-H522),GI50 (MOLT-4),GI50 (M19-MEL),GI50 (SF-295),GI50 (HOP-92),GI50 (OVCAR-8),GI50 (EKVX),GI50 (UO-31),GI50 (TK-10),GI50 (NCI-H226),GI50 (OVCAR-3),GI50 (SNB-75),GI50 (SNB-19),GI50 (A498),GI50 (SR),GI50 (PC-3),GI50 (Hs-578T),GI50 (NCI/ADR-RES)
C#CCN(Cc1ccc2nc(-c3ccccc3)c(Cl)nc2c1)c1cc(OC)c(OC)c(OC)c1,> 100 µM (inactive),> 100 µM (inactive),> 100 µM (inactive),83.6 µM (inactive),> 100 µM (inactive),> 100 µM (inactive),> 100 µM (inactive),> 100 µM (inactive),> 100 µM (inactive),> 100 µM (inactive),> 100 µM (inactive),> 100 µM (inactive),> 100 µM (inactive),> 100 µM (inactive),> 100 µM (inactive),> 100 µM (inactive),,,,
COC(=O)C(C)Oc1ccc(O)cc1 (stereo not given),> 100 µM (inactive),> 100 µM (inactive),> 100 µM (inactive),,> 100 µM (inactive),> 100 µM (inactive),> 100 µM (inactive),> 100 µM (inactive),> 100 µM (inactive),> 100 µM (inactive),> 100 µM (inactive),> 100 µM (inactive),> 100 µM (inactive),> 100 µM (inactive),> 100 µM (inactive),> 100 µM (inactive),,,,
C1CN2N3CCCC23C1 (stereo not given),> 100 µM (inactive),> 100 µM (inactive),> 100 µM (inactive),> 100 µM (inactive),> 100 µM (inactive),> 100 µM (inactive),,> 100 µM (inactive),> 100 µM (inactive),> 100 µM (inactive),> 100 µM (inactive),> 100 µM (inactive),> 100 µM (inactive),> 100 µM (inactive),> 100 µM (inactive),> 100 µM (inactive),> 100 µM (inactive),,,
COC[n+]1cc2cc(OC)c(OC)cc2c2ccc3cc(OC)c(OC)cc3c21,> 100 µM (inactive),> 100 µM (inactive),> 100 µM (inactive),> 100 µM (inactive),> 100 µM (inactive),> 100 µM (inactive),> 100 µM (inactive),> 100 µM (inactive),> 100 µM (inactive),> 100 µM (inactive),> 100 µM (inactive),> 100 µM (inactive),> 100 µM (inactive),> 100 µM (inactive),> 100 µM (inactive),,> 10 µM (inactive),,,
CN(C)CC(/C(Cc1ccccc1)=N\NC(=O)c1ccncc1)c1ccccc1 (stereo not given),36.7 µM (inactive),33.8 µM (inactive),27.4 µM (inactive),,30.1 µM (inactive),17.4 µM (inactive),19.2 µM (inactive),32.8 µM (inactive),23.6 µM (inactive),,34.2 µM (inactive),71.6 µM (inactive),20.1 µM (inactive),36.1 µM (inactive),39 µM (inactive),,,,,
O=C1Cc2ccccc2N1/N=C\c1ccc(O)cc1,> 100 µM (inactive),49.7 µM (inactive),,13.4 µM (inactive),> 100 µM (inactive),77.4 µM (inactive),> 100 µM (inactive),> 100 µM (inactive),82.2 µM (inactive),45.1 µM (inactive),> 100 µM (inactive),> 100 µM (inactive),> 100 µM (inactive),18.1 µM (inactive),> 100 µM (inactive),> 100 µM (inactive),,,,
O=C1C=Cc2noc3cccc1c23,2.07 µM (inactive),,1.29 µM (inactive),0.836 µM (active),3.18 µM (inactive),18.6 µM (inactive),2.28 µM (inactive),2.88 µM (inactive),3.9 µM (inactive),4.62 µM (inactive),18.4 µM (inactive),19.1 µM (inactive),3.31 µM (inactive),11.6 µM (inactive),17.5 µM (inactive),13.6 µM (inactive),,,,
CC(C)COC(=O)c1ccc(/N=C\c2ccc(/C=N/c3ccc(C(=O)OCC(C)C)cc3)cc2)cc1,> 100 µM (inactive),> 100 µM (inactive),> 100 µM (inactive),> 100 µM (inactive),> 100 µM (inactive),> 100 µM (inactive),> 100 µM (inactive),> 100 µM (inactive),,23.9 µM (inactive),> 100 µM (inactive),> 100 µM (inactive),> 100 µM (inactive),> 100 µM (inactive),> 100 µM (inactive),,> 100 µM (inactive),,,
COc1cc(/C=C(\NC(=O)c2ccccc2)c2nc3cncnc3[nH]2)cc(OC)c1OC,> 100 µM (inactive),,> 100 µM (inactive),> 100 µM (inactive),> 100 µM (inactive),> 100 µM (inactive),88.1 µM (inactive),> 100 µM (inactive),> 100 µM (inactive),57.7 µM (inactive),> 100 µM (inactive),,> 100 µM (inactive),,> 100 µM (inactive),,> 100 µM (inactive),,,
Cc1ccc2nc(NC(=O)C(=O)C(C#N)c3ccc(Cl)cc3)sc2c1 (stereo not given),> 50 µM (inactive),> 50 µM (inactive),,,> 50 µM (inactive),> 50 µM (inactive),> 50 µM (inactive),> 50 µM (inactive),> 50 µM (inactive),> 50 µM (inactive),> 50 µM (inactive),> 50 µM (inactive),> 50 µM (inactive),> 50 µM (inactive),> 50 µM (inactive),,,,,
O=C(CC1=Nc2nnc(-c3nnc4n3C(=O)C(CC(=O)C3CC3)=N4)n2C1=O)C1CC1,> 100 µM (inactive),> 100 µM (inactive),> 100 µM (inactive),> 100 µM (inactive),> 100 µM (inactive),> 100 µM (inactive),> 100 µM (inactive),,,> 100 µM (inactive),> 100 µM (inactive),> 100 µM (inactive),> 100 µM (inactive),> 100 µM (inactive),> 100 µM (inactive),> 100 µM (inactive),,,,
CNc1nc(N)cc(O)n1,> 100 µM (inactive),> 100 µM (inactive),> 100 µM (inactive),> 100 µM (inactive),> 100 µM (inactive),> 100 µM (inactive),,> 100 µM (inactive),> 100 µM (inactive),> 100 µM (inactive),> 100 µM (inactive),> 100 µM (inactive),> 100 µM (inactive),> 100 µM (inactive),> 100 µM (inactive),> 100 µM (inactive),,,,
COc1cc([C@@H]2c3cc4c(cc3[C@@H](OC(=O)c3ccccc3)C3COC(=O)[C@@H]32)OCO4)cc(OC)c1O (stereo not given in full),25.9 µM (inactive),0.0208 µM (active),< 0.01 µM (active),0.0413 µM (active),< 0.01 µM (active),< 0.01 µM (active),< 0.01 µM (active),< 0.01 µM (active),,0.132 µM (active),38.9 µM (inactive),< 0.01 µM (active),,< 0.01 µM (active),,,,,,
CC(=O)OCC(=O)[C@@]1(O)CC[C@H]2[C@@H]3C[C@H](C)C4=CC(=O)C=C[C@]4(C)[C@@]3(F)[C@@H](O)C[C@@]21C,> 100 µM (inactive),> 100 µM (inactive),> 100 µM (inactive),68.7 µM (inactive),> 100 µM (inactive),> 100 µM (inactive),> 100 µM (inactive),,> 100 µM (inactive),81.1 µM (inactive),> 100 µM (inactive),32.5 µM (inactive),> 100 µM (inactive),73.8 µM (inactive),> 100 µM (inactive),,96.4 µM (inactive),,,
C[C@@H](C[C@H]1OC(C)(C)O[C@@H]1C(C)(C)O)[C@H]1CC=C2[C@]3(C)[C@H](O)C[C@H]4C(C)(C)[C@H](O)CC[C@]4(C)[C@H]3CC[C@]21C,8.51 µM (inactive),12.8 µM (inactive),8.24 µM (inactive),4.52 µM (inactive),,9.14 µM (inactive),6.21 µM (inactive),11.6 µM (inactive),9.98 µM (inactive),8.93 µM (inactive),11.7 µM (inactive),7.62 µM (inactive),7.91 µM (inactive),9.79 µM (inactive),10.7 µM (inactive),10.7 µM (inactive),4.76 µM (inactive),5.05 µM (inactive),7.33 µM (inactive),7.69 µM (inactive)
O=[PH](O)c1ccccn1,> 100 µM (inactive),> 100 µM (inactive),> 100 µM (inactive),> 100 µM (inactive),> 100 µM (inactive),> 100 µM (inactive),> 100 µM (inactive),> 100 µM (inactive),> 100 µM (inactive),> 100 µM (inactive),> 100 µM (inactive),> 100 µM (inactive),> 100 µM (inactive),> 100 µM (inactive),> 100 µM (inactive),> 100 µM (inactive),,,,
CCOc1ccc(-c2oc(/C=N/NS(=O)(=O)c3ccc(C)cc3)c([N+](=O)[O-])c2-c2ccc(OCC)cc2)cc1,11.3 µM (inactive),21.3 µM (inactive),5.96 µM (inactive),2.65 µM (inactive),3.72 µM (inactive),14.4 µM (inactive),8.85 µM (inactive),15.6 µM (inactive),26.1 µM (inactive),12.7 µM (inactive),22 µM (inactive),14.4 µM (inactive),15.6 µM (inactive),4.19 µM (inactive),15 µM (inactive),14.9 µM (inactive),,,,
COc1ccc(OC)c(N2CC(N)C2=O)c1 (stereo not given),> 100 µM (inactive),> 100 µM (inactive),> 100 µM (inactive),> 100 µM (inactive),> 100 µM (inactive),> 100 µM (inactive),> 100 µM (inactive),> 100 µM (inactive),> 100 µM (inactive),> 100 µM (inactive),> 100 µM (inactive),> 100 µM (inactive),> 100 µM (inactive),86.7 µM (inactive),> 100 µM (inactive),> 100 µM (inactive),,,,
